Measurements: patent publication US20040142933A1, “Oxindole substituted piperazine derivatives” (priority 2002, published 2004)

Legend:
[1] = molecular target: T1, dopamine D2 receptor (Homo sapiens, UniProt P14416); assay: Dopamine D2 receptor binding, [3H]spiperone, CHO-hD2L cell membranes; settings: [3H]spiperone 0.4 nM
T1 construct: expressed in transfected cells; host or cells: CHO cells (CHO-hD2L)
Source text: (§1) The ability of the compounds of this invention to bind to the dopamine D2 and serotonin 2A (5HT2A) receptors can be determined using conventional radioligand receptor binding assays. All receptors can be heterologously expressed in cell lines and experiments conducted in membrane preparations from the cell lines using procedures outlined below. IC50 concentrations can be determined by nonlinear regression of concentration-dependent reduction in specific binding. The Cheng-Prussoff equation can be used to convert the IC50 to Ki concentrations.
Dopamine D2 Receptor Binding:
[^3H]Spiperone binding to a membrane preparation from CHO-hD2L cells is carried out in 250 μl of 50 mM Tris-HCl buffer containing 100 mM NaCl, 1 mM MgCl2 and 1% DMSO at pH 7.4. Duplicate samples containing (in order of addition) the test compounds, 0.4 nM [^3H]spiperone and approximately 12 μg protein are incubated for 120 minutes at room temperature. Bound radioligand is separated by rapid filtration under reduced pressure through Whatman GF/B glass fiber filters previously treated with 0.3% polyethyleneimine. Radioactivity retained on the filter is determined by liquid scintillation spectrophotometry.
The title compounds of Examples 1-14 were tested using the above assay, in which specific binding determined in the presence of 1 mM haloperidol was 95%.

[2] = molecular target: T2, serotonin 2A (5HT2A) receptor (Homo sapiens, UniProt P28223); assay: Serotonin 2A binding, [3H]ketanserin, Swiss-h5HT2A cell membranes; settings: [3H]ketanserin 1.0 nM
T2 construct: expressed in transfected cells; host or cells: Swiss cells (Swiss-h5HT2A)
Source text: as §1
[^3H] Ketanserin binding to Swiss-h5HT2A cell membranes can be carried out in 250 μl of 50 mM Tris-HCl buffer pH 7.4. Duplicate samples containing (in order of addition) test compounds, 1.0 nM [^3H]ketanserin, and approximately 75 μg protein are incubated for 120 minutes at room temperature. Bound radioligand is separated by rapid filtration under reduced pressure through Whatman GF/B glass fiber filters previously treated with 0.3% polyethyleneimine. Radioactivity retained on the filter is determined by liquid scintillation spectrophotometry.
The title compounds of Examples 1-14 were tested using the above assay, in which specific binding determined in the presence of 1 mM ketanserin was 90%.

T2 sequence (P28223 whole entry): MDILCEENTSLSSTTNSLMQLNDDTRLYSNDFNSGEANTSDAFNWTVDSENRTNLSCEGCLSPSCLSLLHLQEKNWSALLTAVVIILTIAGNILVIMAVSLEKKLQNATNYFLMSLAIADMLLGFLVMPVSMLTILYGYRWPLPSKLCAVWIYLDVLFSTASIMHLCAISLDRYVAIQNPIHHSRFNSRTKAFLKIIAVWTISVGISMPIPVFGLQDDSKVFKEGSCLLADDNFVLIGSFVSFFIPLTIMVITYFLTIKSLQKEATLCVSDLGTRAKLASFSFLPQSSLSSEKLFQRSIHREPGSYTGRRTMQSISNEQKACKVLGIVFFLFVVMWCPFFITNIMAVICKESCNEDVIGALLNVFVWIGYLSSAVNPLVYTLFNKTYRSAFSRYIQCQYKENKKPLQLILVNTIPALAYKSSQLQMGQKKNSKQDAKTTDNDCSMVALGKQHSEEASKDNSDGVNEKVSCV
T1 sequence (P14416 whole entry): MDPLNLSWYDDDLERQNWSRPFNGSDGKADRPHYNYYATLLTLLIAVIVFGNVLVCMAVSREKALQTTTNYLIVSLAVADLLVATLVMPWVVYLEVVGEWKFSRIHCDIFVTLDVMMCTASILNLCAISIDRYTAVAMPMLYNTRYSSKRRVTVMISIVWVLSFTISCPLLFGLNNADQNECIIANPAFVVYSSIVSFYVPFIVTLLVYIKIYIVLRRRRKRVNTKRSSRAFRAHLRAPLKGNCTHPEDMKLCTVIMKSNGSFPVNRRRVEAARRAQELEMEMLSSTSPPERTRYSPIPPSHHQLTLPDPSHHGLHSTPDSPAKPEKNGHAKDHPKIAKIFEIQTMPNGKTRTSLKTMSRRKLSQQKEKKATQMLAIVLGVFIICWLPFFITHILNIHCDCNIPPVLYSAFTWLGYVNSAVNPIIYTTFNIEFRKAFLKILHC

Row | Ki [1] [nM] | Ki [2] [nM] | SMILES
1 | 49.4 |  | CC(C)=C1C(=O)Nc2ccc(CCCN3CCN(c4noc5ccccc45)CC3)cc21 [Example 4, 5-[3-(4-1,2-Benzisoxazol-3-yl-piperazin-1-yl)-propyl]-3-isopropylidene-1,3-dihydro-indol-2-one]
2 | 1.3 | 8.4 | CC(C)=C1C(=O)Nc2cc(Cl)c(CCN3CCN(c4nsc5ccccc45)CC3)cc21 [Example 5, 5-[2-(4-1,2-benzisothiazol-3-yl-piperazin-1-yl)-ethyl]-6-chloro-3-isopropylidene-1,3-dihydro-indol-2-one]
3 |  | 7.45 | CC1(C)CC12C(=O)Nc1cc(Cl)c(CCCN3CCN(c4nsc5ccccc45)CC3)cc12 (stereo not drawn) [Example 14, Spiro[cyclopropane-1,3′-{3H}indol]-2′(1′H)-one,5′-[3-[4-{1,2-benzisothiazol-3-yl}-1-piperazinyl]propyl]-6′-chloro-2,2-dimethyl—]
4 | 14.7 | 0.75 | CC(C)=C1C(=O)N(C)c2ccc(CCN3CCN(c4nsc5ccccc45)CC3)cc21 [Example 1, 5-[2-(4-1,2-benzisothiazol-3-yl-piperazin-1-yl)-ethyl]-3-isopropylidene-1-methyl-1,3-dihydro-indol-2-one]
